Test results as given in patent publication US20240383915A1, “OXAZEPINE COMPOUNDS AND USES THEREOF IN THE TREATMENT OF CANCER” (Genentech, Inc., priority 2021, published 2024).
Where two headings read alike, the source gives them in different places.

Columns and labels:
[1] = test system: PC-9 cells; assay: PC9 proliferation assay; assay type: cell-based, human; conditions: read-out: PC9 Prolif IC50 (G12V)
[2] = target: KRas(G12V) (Homo sapiens (Human), UniProt P01116, G12V); assay: KRas(G12V) GDP HTRF (BODIPY-GDP exchange TR-FRET); assay type: biochemical
[3] = test system: SW480 cells; assay: SW480 proliferation assay; assay type: cell-based; conditions: read-out: SW480 Prolif IC50 (G12V)
[4] = target: KRas (Homo sapiens (Human), UniProt P01116); assay: KRas GDP HTRF (BODIPY-GDP exchange TR-FRET); assay type: biochemical
Outline: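 Inhibition of SOS1-mediated exchange of BODIPY-GDP on KRAS G12D, started with 3 nM recombinant human SOS1 and 300 nM BODIPY-GDP and read after 60 min. TR-FRET excitation 337 nm, ratio 520/490 nm ×10,000. IC50 from 4-parameter Hill fit of normalized data.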

Sequence of KRas (P01116-2 other isoform, or with tags, fused parts or gaps): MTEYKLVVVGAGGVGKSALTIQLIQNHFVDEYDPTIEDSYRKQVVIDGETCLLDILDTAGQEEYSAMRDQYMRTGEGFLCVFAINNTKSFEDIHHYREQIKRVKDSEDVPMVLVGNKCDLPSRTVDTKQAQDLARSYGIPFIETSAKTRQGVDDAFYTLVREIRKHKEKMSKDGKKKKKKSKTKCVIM
Sequence of KRas(G12V) (P01116-2 other isoform, or with tags, fused parts or gaps G12V): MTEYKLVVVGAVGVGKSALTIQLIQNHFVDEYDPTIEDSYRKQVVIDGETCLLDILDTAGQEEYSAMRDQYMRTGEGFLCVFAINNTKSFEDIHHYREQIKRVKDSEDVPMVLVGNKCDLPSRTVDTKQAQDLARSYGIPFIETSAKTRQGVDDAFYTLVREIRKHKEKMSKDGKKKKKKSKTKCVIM

IC50 ([1]; Homo sapiens, PC-9, PC9) | IC50 [2] | IC50 ([3]; Homo sapiens, SW480, SW480) | IC50 [4] | IC50 ([1]; PC9) | IC50 ([3]; SW480) | Compound
7800 nM | 0.067 nM | 6.1 nM | 0.0659 nM |  |  | Cc1cc(N)nc(-c2c(Cl)c3c4c(nc(OC[C@@]56CCCN5C[C@H](F)C6)nc4c2F)N([C@H](C)c2cncnc2N)CCO3)c1C(F)(F)F (atropisomer, axis not shown; (aS)) [Example 81, 5-((R)-1-((R)-9-(6-amino-4-methyl-3-(trifluoromethyl)pyridin-2-yl)-8-chloro-10-fluoro-2-(((2R,7aS)-2-fluorotetrahydro-1H-pyrrolizin-7a(5H)-yl)methoxy)-5,6-dihydro-4H-[1,4]oxazepino[5,6,7-de]quinazolin-4-yl)ethyl)pyrimidin-4-amine]
3700 nM | 0.15 nM | 4.9 nM | 0.44 nM |  |  | Cc1cc(N)nc(-c2c(Cl)c3c4c(nc(OC[C@@]56CCCN5C[C@H](F)C6)nc4c2F)N([C@@H](c2cccnc2N)C2CC2)CCO3)c1C(F)(F)F (atropisomer, axis not shown; (aS)) [Example 86, 6-((R)-4-((R)-(2-aminopyridin-3-yl)(cyclopropyl)methyl)-8-chloro-10-fluoro-2-(((2R,7aS)-2-fluorotetrahydro-1H-pyrrolizin-7a(5H)-yl)methoxy)-5,6-dihydro-4H-[1,4]oxazepino[5,6,7-de]quinazolin-9-yl)-4-methyl-5-(trifluoromethyl)pyridin-2-amine]
6300 nM | 0.087 nM | 2.5 nM | 0.106 nM |  |  | Cc1cc(N)nc(-c2c(Cl)c3c4c(nc(OC[C@@H]5CC[C@H]6COCCN65)nc4c2F)N([C@H](C)c2cccnc2N)CCO3)c1C(F)(F)F (atropisomer, axis not shown; (aS)) [Example 87a, 6-((R)-4-((R)-1-(2-aminopyridin-3-yl)ethyl)-8-chloro-10-fluoro-2-(((6S,8aS)-hexahydro-1H-pyrrolo[2,1-c][1,4]oxazin-6-yl)methoxy)-5,6-dihydro-4H-[1,4]oxazepino[5,6,7-de]quinazolin-9-yl)-4-methyl-5-(trifluoromethyl)pyridin-2-amine]
3000 nM | 0.05 nM | 1.5 nM | 0.12 nM |  |  | Cc1cc(N)nc(-c2c(Br)c3c4c(nc(OC[C@@]56CCCN5C[C@H](F)C6)nc4c2F)N([C@H](C)c2cccnc2N)CCO3)c1C(F)(F)F (atropisomer, axis not shown; (aS)) [Example 88, (R)-6-(4-((R)-1-(2-aminopyridin-3-yl)ethyl)-8-bromo-10-fluoro-2-(((2R,7aS)-2-fluorotetrahydro-1H-pyrrolizin-7a(5H)-yl)methoxy)-5,6-dihydro-4H-[1,4]oxazepino[5,6,7-de]quinazolin-9-yl)-4-methyl-5-(trifluoromethyl)pyridin-2-amine]
2400 nM | 0.075 nM | 7.2 nM | 0.17 nM |  |  | CCO[C@H]1CN2CCC[C@@]2(COc2nc3c4c(c(Cl)c(-c5nc(N)cc(C)c5C(F)(F)F)c(F)c4n2)OCCN3[C@H](C)c2cccnc2N)C1 (atropisomer, axis not shown; (aS)) [Example 89, 6-((R)-4-((R)-1-(2-aminopyridin-3-yl)ethyl)-8-chloro-2-(((2R,7aS)-2-ethoxytetrahydro-1H-pyrrolizin-7a(5H)-yl)methoxy)-10-fluoro-5,6-dihydro-4H-[1,4]oxazepino[5,6,7-de]quinazolin-9-yl)-4-methyl-5-(trifluoromethyl)pyridin-2-amine]
20000 nM | 0.29 nM | 3.4 nM | 0.9 nM |  |  | Cc1cc(N)nc(-c2c(Cl)c3c4c(nc(OC[C@@H]5CC[C@H]6COC(F)(F)CN56)nc4c2F)N([C@H](C)c2cccnc2N)CCO3)c1C(F)(F)F (atropisomer, axis not shown; (aS)) [Example 91a, 6-((R)-4-((R)-1-(2-aminopyridin-3-yl)ethyl)-8-chloro-2-(((6S,8aS)-3,3-difluorohexahydro-1H-pyrrolo[2,1-c][1,4]oxazin-6-yl)methoxy)-10-fluoro-5,6-dihydro-4H-[1,4]oxazepino[5,6,7-de]quinazolin-9-yl)-4-methyl-5-(trifluoromethyl)pyridin-2-amine]
830 nM | 0.06 nM | 5.7 nM | 0.0616 nM |  |  | Cc1cc(N)nc(-c2c(Cl)c3c4c(nc(OC[C@@]56CCCN5C[C@H](F)C6)nc4c2F)N([C@H](C)c2nccnc2N)CCO3)c1C(F)(F)F (atropisomer, axis not shown; (aS)) [Example 101, 3-((R)-1-((R)-9-(6-amino-4-methyl-3-(trifluoromethyl)pyridin-2-yl)-8-chloro-10-fluoro-2-(((2R,7aS)-2-fluorotetrahydro-1H-pyrrolizin-7a(5H)-yl)methoxy)-5,6-dihydro-4H-[1,4]oxazepino[5,6,7-de]quinazolin-4-yl)ethyl)pyrazin-2-amine]
2200 nM | 0.094 nM | 19 nM | 0.115 nM |  |  | Cc1cc(N)nc(-c2c(Cl)c3c4c(nc(OC[C@@H]5CC[C@H]6COCCN65)nc4c2F)N([C@H](C)c2cncnc2N)CCO3)c1C(F)(F)F (atropisomer, axis not shown; (aS)) [Example 102a, 5-((R)-1-((R)-9-(6-amino-4-methyl-3-(trifluoromethyl)pyridin-2-yl)-8-chloro-10-fluoro-2-(((6S,8aS)-hexahydro-1H-pyrrolo[2,1-c][1,4]oxazin-6-yl)methoxy)-5,6-dihydro-4H-[1,4]oxazepino[5,6,7-de]quinazolin-4-yl)ethyl)pyrimidin-4-amine]
 | 90 nM |  | 240 nM | 4000 nM | 560 nM | Cc1cc(N)nc(-c2c(Cl)c3c4c(nc(OC[C@@]56CCCN5C[C@H](F)C6)nc4c2F)N([C@H](C)c2cccnc2N)CCO3)c1C(F)(F)F (atropisomer, axis not shown; (aS)) [Example 107, (S)-6-(4-((R)-1-(2-aminopyridin-3-yl)ethyl)-8-chloro-10-fluoro-2-(((2R,7aS)-2-fluorotetrahydro-1H-pyrrolizin-7a(5H)-yl)methoxy)-5,6-dihydro-4H-[1,4]oxazepino[5,6,7-de]quinazolin-9-yl)-4-methyl-5-(trifluoromethyl)pyridin-2-amine]
1400 nM | 0.06 nM | 2 nM | 0.2 nM |  |  | C[C@H](c1cccnc1N)N1CCOc2c(Cl)c(-c3nc(N)ccc3C(F)(F)F)c(F)c3nc(OC[C@@]45CCCN4C[C@H](F)C5)nc1c23 (atropisomer, axis not shown; (aS)) [Example 108a, 6-((R)-4-((R)-1-(2-aminopyridin-3-yl)ethyl)-8-chloro-10-fluoro-2-(((2R,7aS)-2-fluorotetrahydro-1H-pyrrolizin-7a(5H)-yl)methoxy)-5,6-dihydro-4H-[1,4]oxazepino[5,6,7-de]quinazolin-9-yl)-5-(trifluoromethyl)pyridin-2-amine]
7500 nM | 0.09 nM | 2.8 nM | 0.2 nM |  |  | C[C@H](c1cccnc1N)N1CCOc2c(Cl)c(-c3nc(N)cc4ccccc34)c(F)c3nc(OC[C@@]45CCCN4C[C@H](F)C5)nc1c23 (atropisomer, axis not shown; (aS)) [Example 113a, 1-((R)-4-((R)-1-(2-aminopyridin-3-yl)ethyl)-8-chloro-10-fluoro-2-(((2R,7aS)-2-fluorotetrahydro-1H-pyrrolizin-7a(5H)-yl)methoxy)-5,6-dihydro-4H-[1,4]oxazepino[5,6,7-de]quinazolin-9-yl)isoquinolin-3-amine]
